Results published in article PMC8199067, “Urolithin and Reduced Urolithin Derivatives as Potent Inhibitors of Tyrosinase and Melanogenesis: Importance of the 4-Substituted Resorcinol Moiety” (International Journal of Molecular Sciences, 2021).
Where “and” joins values, the source holds several entries; their conditions need not be identical. Equal entries are not always repeated. Entries after “also recorded” stand apart in the source; their conditions may differ. Where two headings read alike, the source gives them in different places.

Key:
mushroom tyrosinase [1] = target: T1, mushroom tyrosinase (Agaricus bisporus, UniProt C7FF04); assay: Mushroom tyrosinase inhibitory assay (L-tyrosine substrate); type: biochemical; conditions: for Tyrosinase Inhibition (%) / inhibition at 50 µM: 50 μM, L-tyrosine as substrate, mean ± SEM, NI means no inhibition; for IC50: mushroom tyrosinase, L-tyrosine, read-out: IC50
Protocol: The experiment was repeated three times. Mushroom tyrosinase inhibitions % were calculated using:% Inhibition = [1 − (A/B)] × 100(1) where A is the absorbance of the test compound and B is the absorbance of the blank.
Log-linear curves were plotted, and their equations were determined.
Target sequence in this assay (C7FF04 1-392 limits assumed): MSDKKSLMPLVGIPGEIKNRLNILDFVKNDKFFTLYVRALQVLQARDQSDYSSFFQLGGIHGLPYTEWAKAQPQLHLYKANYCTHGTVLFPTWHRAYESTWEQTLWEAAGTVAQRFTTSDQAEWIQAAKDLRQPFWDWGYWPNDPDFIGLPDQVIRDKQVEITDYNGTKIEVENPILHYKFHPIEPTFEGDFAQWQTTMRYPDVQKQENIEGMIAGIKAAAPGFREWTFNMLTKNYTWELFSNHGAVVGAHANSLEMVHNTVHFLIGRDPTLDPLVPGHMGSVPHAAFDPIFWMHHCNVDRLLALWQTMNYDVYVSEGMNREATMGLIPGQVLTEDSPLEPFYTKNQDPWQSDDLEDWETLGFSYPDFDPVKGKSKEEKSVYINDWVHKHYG

mushroom tyrosinase [2] = target: T1, mushroom tyrosinase; assay: Kinetic analysis of mushroom tyrosinase inhibition, Lineweaver–Burk plots; type: biochemical; conditions: for Mode of tyrosinase inhibition: Lineweaver–Burk analysis, L-tyrosine as substrate
Protocol: Briefly, 170 μL of a mixture of an aqueous solution of L-[…].0, 2.0, 4.0, or 8.0 mM and 50 mM of potassium phosphate (pH 6.5) was added to a 96-well plate. […] Lineweaver-Burk plots were used to determine Vmax (maximal reaction rates) and KM (Michaelis-Menten constants) of mushroom tyrosinase activities.
Target sequence in this assay (C7FF04 1-392): as the sequence (C7FF04 1-392 limits assumed) above

[3] = EZ-cytox cell viability assay; type: cell-based, murine; conditions: mouse, B16F10 melanoma cells, 20 µM
Protocol: (§1) EZ-cytox assays were performed to examine whether these compounds are cytotoxic.
(§2) B16F10 murine melanoma cells were purchased from the American Type Culture Collection (ATCC, Manassas, VA, USA). Cells were cultured in Dulbecco’s modified Eagle’s medium (10% fetal bovine serum (FBS), and 1% streptomycin) obtained from Gibco/Thermo Fisher Scientific (Carlsbad, CA, USA) at 37 °C in a 5% CO2 environment. These cultured cells were used for cell viability, melanin content, and cellular tyrosinase inhibitory assays.
(§3) EZ-cytox assays were performed on 1c, 1h, and 2a, according to previously described. B16F10 cells were seeded in a 96-well plate at a density of 5 × 10^4 cells/well and incubated at 37 °C in a humidified 5% CO2 atmosphere overnight. Cells were then treated with different concentrations of 1c, 1h, or 2a (0, 1, 2, 5, 10, or 20 µM) and incubated for 24 h under the same conditions. EZ-cytox solution (10 µL) was then added and the plate was incubated for 3 h at 37 °C in a humidified 5% CO2 atmosphere. Optical densities of wells were measured at 450 nm using an ELISA reader. All experiments were independently repeated three times.

B16F10 melanoma cells [4] = assay: EZ-cytox cell viability assay; type: cell-based, murine; conditions: 1–20 µM, 24 h
Protocol: as §1, §2, §3

B16F10 melanoma cells [5] = assay: Melanin content assay in α-MSH plus IBMX-stimulated B16F10 melanoma cells; type: cell-based, murine; conditions: 48 h
Protocol: Melanin contents in B16F10 cells were assessed by measuring optical densities spectrophotometrically. […] After washing cells with PBS two or three times, they were incubated for 1 h in 100 µL of 1N NaOH solution at 60 °C. […] All experiments were independently repeated three times.

[6] = target: T2, tyrosinase in B16F10 melanoma cells (Mus musculus, UniProt P11344); assay: Cellular tyrosinase activity in α-MSH plus IBMX-stimulated B16F10 melanoma cells; conditions: 48 h
T2 sequence (P11344 19-533): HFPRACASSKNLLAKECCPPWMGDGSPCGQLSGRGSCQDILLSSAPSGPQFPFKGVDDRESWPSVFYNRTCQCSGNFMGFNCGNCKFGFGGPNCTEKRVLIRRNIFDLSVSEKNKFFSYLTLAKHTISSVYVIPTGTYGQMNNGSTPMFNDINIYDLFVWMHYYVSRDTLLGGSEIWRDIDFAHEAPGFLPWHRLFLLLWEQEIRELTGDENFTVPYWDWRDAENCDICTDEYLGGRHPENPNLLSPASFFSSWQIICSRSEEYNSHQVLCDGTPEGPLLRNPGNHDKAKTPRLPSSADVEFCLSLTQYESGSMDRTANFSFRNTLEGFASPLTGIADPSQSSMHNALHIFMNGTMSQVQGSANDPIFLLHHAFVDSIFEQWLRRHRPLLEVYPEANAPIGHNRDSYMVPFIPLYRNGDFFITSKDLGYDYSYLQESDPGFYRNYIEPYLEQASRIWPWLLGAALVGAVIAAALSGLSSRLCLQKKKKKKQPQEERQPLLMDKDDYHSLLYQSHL
Protocol: Cells were washed with PBS two or three times, lysed with a 100 μL of buffer (90 μL of PBS (50 mM), 5 μL of PMSF (0.1 mM), and 5 μL of 1% Triton X-100), frozen at −80 °C for 30 min, and centrifuged at 12,000 rpm for 30 min at 4 °C. Lysate supernatants (80 µL) were mixed with 20 µL of L-dopa (2 mg/mL) in a 96-well plate and incubated at 37 °C for 15 min. […] All the experiments were independently repeated three times.

[7] = 1.56 μM, read-out: Average of Inhibition (%)
[8] = 3.13 μM, read-out: Average of Inhibition (%)
[9] = 6.25 μM, read-out: Average of Inhibition (%)
[10] = 6.25 μM, read-out: Inhibition (%), single determinations
[11] = 12.50 μM, read-out: Average of Inhibition (%)
[12] = 12.50 μM, read-out: Inhibition (%), single determinations
[13] = 25.00 μM, read-out: Average of Inhibition (%)
[14] = 25.00 μM, read-out: Inhibition (%), single determinations
[15] = inhibitor 10 μM, L-tyrosine 1.0–8.0 mM
[16] = inhibitor 20 μM, L-tyrosine 1.0–8.0 mM
[17] = inhibitor 40 μM, L-tyrosine 1.0–8.0 mM
[18] = not dependent on inhibitor concentration

SMILES | Inhibition (%), single determinations (mushroom tyrosinase [1]; 1.56 μM) | inhibition at 1.56 µM (mushroom tyrosinase [1]; [7]) [%] | inhibition at 3.13 µM (mushroom tyrosinase [1]; [8]) [%] | Inhibition (%), single determinations (mushroom tyrosinase [1]; 6.25 μM) | inhibition at 6.25 µM (mushroom tyrosinase [1]; [9]) [%] | inhibition at 6.25 µM (mushroom tyrosinase [1]; [10]) [%] | Inhibition (%), single determinations (mushroom tyrosinase [1]; 12.50 μM, 12.5 µM) | inhibition at 12.5 µM (mushroom tyrosinase [1]; [11]) [%] | inhibition at 12.5 µM (mushroom tyrosinase [1]; [12]) [%] | Inhibition (%), single determinations (mushroom tyrosinase [1]; 25.00 μM) | inhibition at 25 µM (mushroom tyrosinase [1]; [13]) [%] | inhibition at 25 µM (mushroom tyrosinase [1]; [14]) [%] | Tyrosinase Inhibition (%) (mushroom tyrosinase [1]) | inhibition at 50 µM (mushroom tyrosinase [1]) [%] | IC50 (mushroom tyrosinase [1]) [µM] | Mode of tyrosinase inhibition (mushroom tyrosinase [2]) | Vmax (mushroom tyrosinase [2]; [15]) [mM/min] | Vmax (mushroom tyrosinase [2]; [16]) [mM/min] | Vmax (mushroom tyrosinase [2]; [17]) [mM/min] | Vmax (mushroom tyrosinase [2]; [18]) [mM/min] | other results
O=c1oc2cc(O)cc(O)c2c2ccccc12 [Compound 1c, 1,3-Dihydroxy-6H-benzo[c]chromen-6-one] | 4.01% and 2.57% | 3.06 ± 0.47 | 10.1 ± 0.37 | 25.08% and 33.10% | 28.5 ± 2.39 | 27.3 | 45.18% and 48.37% | 45.8 ± 1.37 | 43.7 | 61.85% | 61.21 ± 0.32 | 60.9 | 68.93 ± 0.67 | 69 | 18.1 ± 0.25 | competitive inhibitors | 0.027 | 0.027 | 0.027 | 0.027 | inhibition at 1.56 µM (mushroom tyrosinase [1]; 1.56 μM, read-out: Inhibition (%), single determinations): 2.61%; Inhibition (%), single determinations (mushroom tyrosinase [1]; 3.13 μM): 10.84% and 9.94%; inhibition at 3.13 µM (mushroom tyrosinase [1]; 3.13 μM, read-out: Inhibition (%), single determinations): 9.61%; viability at 24 h, 20 µM [3]: 71.4%; Cytotoxic effect (B16F10 melanoma cells [4]): weakly cytotoxic
OCc1ccccc1-c1ccc(O)cc1O [Compound 2a, 2′-(Hydroxymethyl)-[1,1′-biphenyl]-2,4-diol] | 0.27% and 0.72% and 1.06% | 0.68 ± 0.23 | 15.1 ± 6.53 | 31.66% and 31.22% | 31.71 ± 0.3 | 32.2 | 50.39% and 54.31% | 53.5 ± 1.62 | 55.8 | 68.71% and 69.37% | 69.3 ± 0.32 | 69.8 | 75.92 ± 2.19 | 76 | 15.7 ± 0.4 | competitive inhibitors | 0.029 | 0.029 | 0.029 | 0.029 | Cytotoxic effect (B16F10 melanoma cells [4]): No significant cytotoxic effect; also recorded: not cytotoxic; Melanin content (B16F10 melanoma cells [5]; 5 µM, kojic acid 20 µM as comparator): more potently than kojic acid; Melanin content (B16F10 melanoma cells [5]; 20 μM, kojic acid 20 µM as comparator): more so than kojic acid; Melanin content (B16F10 melanoma cells [5]; 5, 10, 20 μM): more strongly than KA; also recorded: reduced melanin levels significantly and concentration-dependently; also recorded: effectively and dose-dependently; Cellular tyrosinase activity ([6]; 10 μM, α-MSH plus IBMX, kojic acid 20 μM as comparator): greater at 10 μM than kojic acid at 20 μM; Cellular tyrosinase activity ([6]; 20 μM, α-MSH plus IBMX, kojic acid 20 µM as comparator): much higher than that of kojic acid; also recorded: reduced tyrosinase activity to the untreated control levels; Cellular tyrosinase activity ([6]; 5, 10, 20 μM, α-MSH (1 μM) plus IBMX (200 μM)): more strongly than KA; also recorded: decreased significantly and concentration-dependently; also recorded: effectively and dose-dependently
